Counter-ions that a name gives are not always drawn.
Assays:
[1] = molecular target: T1, recombinant human adrenergic beta 1 receptors (Homo sapiens, UniProt P08588); test: Adrenergic β1 selectivity binding assay ([125I]-Iodocyanopindolol); conditions: inhibition of [125I]-Iodocyanopindolol (0.036 nM) binding; for IC50: read-out: β1 bind p IC50 (converted)
T1 construct: purchased Euroscreen
How it was run: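 Recombinant human β1 membranes in HEPES buffer pH 7.4 with 120 mM NaCl were incubated 2 hours at room temperature with 0.036 nM [^125I]-Iodocyanopindolol. Nonspecific binding defined by 10 μM propranolol; bound radioactivity counted after filtration. pIC50 from four-parameter logistic fit.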

[2] = molecular target: T2, recombinant human α1D receptor (Homo sapiens, UniProt P25100); test: Adrenergic α1D selectivity binding assay ([3H]-prazosin); conditions: inhibition of [3H]-prazosin (0.3 nM) binding, HEK293 membranes; for IC50: read-out: α1 bind pIC50 (converted)
T2 construct: expressed in transfected cells; host or cells: HEK293
T2 sequence (P25100 1-572): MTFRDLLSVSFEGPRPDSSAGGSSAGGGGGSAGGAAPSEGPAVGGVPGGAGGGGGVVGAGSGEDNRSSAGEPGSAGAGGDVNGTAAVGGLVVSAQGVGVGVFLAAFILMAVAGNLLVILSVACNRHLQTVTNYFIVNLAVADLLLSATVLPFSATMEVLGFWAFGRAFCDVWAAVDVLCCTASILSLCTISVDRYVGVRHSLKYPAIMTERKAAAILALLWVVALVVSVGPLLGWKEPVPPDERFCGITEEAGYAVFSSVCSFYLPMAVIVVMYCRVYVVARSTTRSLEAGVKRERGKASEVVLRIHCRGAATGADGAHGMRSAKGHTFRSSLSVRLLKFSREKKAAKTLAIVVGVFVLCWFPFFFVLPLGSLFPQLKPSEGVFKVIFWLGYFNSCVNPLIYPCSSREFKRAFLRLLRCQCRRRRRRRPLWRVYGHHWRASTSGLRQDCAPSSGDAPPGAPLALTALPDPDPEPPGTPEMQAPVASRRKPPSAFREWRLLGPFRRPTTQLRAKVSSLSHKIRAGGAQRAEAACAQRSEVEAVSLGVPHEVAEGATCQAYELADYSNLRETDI
How it was run: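 HEK293 membranes with recombinant human α1D receptor incubated 2 h at room temperature with 0.3 nM [3H]-prazosin and compound in 50 mM HEPES, 1 mM EDTA, 0.1% gelatin, pH 7.4; BMY7378 (10 μM) defined non-specific binding. Filter-bound radioactivity counted; pIC50 from four-parameter logistic fit.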

T1 sequence (P08588 whole entry): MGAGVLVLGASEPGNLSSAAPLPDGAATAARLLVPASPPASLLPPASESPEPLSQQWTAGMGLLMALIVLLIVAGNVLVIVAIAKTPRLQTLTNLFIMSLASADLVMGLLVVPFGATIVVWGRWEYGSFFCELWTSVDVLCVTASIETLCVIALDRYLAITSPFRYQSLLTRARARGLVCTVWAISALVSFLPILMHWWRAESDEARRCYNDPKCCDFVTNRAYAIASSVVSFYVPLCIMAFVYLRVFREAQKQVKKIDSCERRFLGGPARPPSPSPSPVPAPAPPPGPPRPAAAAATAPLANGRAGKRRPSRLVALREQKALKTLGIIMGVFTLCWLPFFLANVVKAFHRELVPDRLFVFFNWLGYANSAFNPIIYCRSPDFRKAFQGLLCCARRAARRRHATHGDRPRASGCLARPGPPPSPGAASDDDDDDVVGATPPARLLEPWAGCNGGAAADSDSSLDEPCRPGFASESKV

Row | SMILES | IC50 [1] [nM] | IC50 [2] [nM] | β1 bind p IC50 [1] | α1 bind pIC50 [2]
1 | CC(C)(C)CN(CCNCCc1ccc(O)c2[nH]c(=O)sc12)C(=O)CCNCCc1ccc(Cl)c(Cl)c1 [Example 9, N^3-[2-(3,4-Dichlorophenyl)ethyl]-N-(2,2-dimethylpropyl)-N-(2-{[2-(4-hydroxy-2-oxo-2,3-dihydro-1,3-benzothiazol-7-yl)ethyl]amino}ethyl)-β-alaninamide bis-trifluoroacetic acid salt] | 5010 | 1000 |  | 
2 | O=C(CCNCCc1ccc(Cl)c(Cl)c1)N(CCNCCc1ccc(O)c2[nH]c(=O)sc12)C1CCOCC1 [Example 24, N^3-[2-(3,4-Dichlorophenyl)ethyl]-N-(2-{[2-(4-hydroxy-2-oxo-2,3-dihydro-1,3-benzothiazol-7-yl)ethyl]amino}ethyl)-N-(tetrahydro-2H-pyran-4-yl)-β-alaninamide bis-trifluoroacetic acid salt] | 2000 | 631 |  | 
3 | O=C(CCNCCc1cccc(F)c1)N(CCNCCc1ccc(O)c2[nH]c(=O)sc12)C1CCCCC1 [Example 15, N-Cyclohexyl-N^3-[2-(3-fluorophenyl)ethyl]-N-(2-{[2-(4-hydroxy-2-oxo-2,3-dihydro-1,3-benzothiazol-7-yl)ethyl]amino}ethyl)-β-alaninamide bis-trifluoroacetic acid salt] |  |  | 5.2 | 6.7
4 | O=C(CCNCCc1ccc(Cl)cc1)N(CCNCCc1ccc(O)c2[nH]c(=O)sc12)C1CCC(F)(F)CC1 [Example 48, N^3-[2-(4-Chlorophenyl)ethyl]-N^1-(4,4-difluorocyclohexyl)-N^1-(2-{[2-(4-hydroxy-2-oxo-2,3-dihydro-1,3-benzothiazol-7-yl)ethyl]amino}ethyl)-β-alaninamide bis-trifluoroacetic acid salt] | 2510 | 631 |  | 
5 | O=C(CCNCCc1cccc(Cl)c1)N(CCNCCc1ccc(O)c2[nH]c(=O)sc12)C1CCCC1 [Example 30, N^3-[2-(3-Chlorophenyl)ethyl]-N-cyclopentyl-N-(2-{[2-(4-hydroxy-2-oxo-2,3-dihydro-1,3-benzothiazol-7-yl)ethyl]amino}ethyl)-β-alaninamide bis-trifluoroacetic acid salt] | 3160 | 200 |  | 
6 | O=C(CCNCCc1ccc(Cl)cc1)N(CCNCCc1ccc(O)c2[nH]c(=O)sc12)C1CCOCC1 [Example 26, N^3-[2-(4-Chlorophenyl)ethyl]-N-(2-{[2-(4-hydroxy-2-oxo-2,3-dihydro-1,3-benzothiazol-7-yl)ethyl]amino}ethyl)-N-(tetrahydro-2H-pyran-4-yl)-β-alaninamide bis-trifluoroacetic acid salt] | 5010 | 501 |  | 
7 | O=C(CCNCCc1ccc(F)cc1Cl)N(CCNCCc1ccc(O)c2[nH]c(=O)sc12)C1CCCCCC1 [Example 57, N^3-[2-(2-Chloro-4-fluorophenyl)ethyl]-N^1-cycloheptyl-N^1-(2-{[2-(4-hydroxy-2-oxo-2,3-dihydro-1,3-benzothiazol-7-yl)ethyl]amino}ethyl)-β-alaninamide bis-trifluoroacetic acid salt] | 2510 | 50.1 |  | 
8 | O=C(CCNCCc1ccccc1Cl)N(CCNCCc1ccc(O)c2[nH]c(=O)sc12)C1CCC(F)(F)CC1 [Example 46, N^3-[2-(2-Chlorophenyl)ethyl]-N^1-(4,4-difluorocyclohexyl)-N^1-(2-{[2-(4-hydroxy-2-oxo-2,3-dihydro-1,3-benzothiazol-7-yl)ethyl]amino}ethyl)-β-alaninamide bis-trifluoroacetic acid salt] | 1580 | 158 |  | 
9 | COc1cccc(CCNCCC(=O)N(CCNCCc2ccc(O)c3[nH]c(=O)sc23)CC(C)(C)C)c1 [Example 43, N^1-(2,2-Dimethylpropyl)-N^1-(2-{[2-(4-hydroxy-2-oxo-2,3-dihydro-1,3-benzothiazol-7-yl)ethyl]amino}ethyl)-N^3-[2-(3-methoxyphenyl)ethyl]-β-alaninamide bis-trifluoroacetic acid salt] | 5010 | 158 |  | 
10 | O=C(CCNCCc1cccc(Cl)c1)N(CCNCCc1ccc(O)c2[nH]c(=O)sc12)C1CCOCC1 [Example 22, N^3-[2-(3-Chlorophenyl)ethyl]-N-(2-{[2-(4-hydroxy-2-oxo-2,3-dihydro-1,3-benzothiazol-7-yl)ethyl]amino}ethyl)-N-(tetrahydro-2H-pyran-4-yl)-β-alaninamide bis-trifluoroacetic acid salt] | 3980 | 251 |  | 
11 | O=C(CCNCCc1ccccc1)N(CCNCCc1ccc(O)c2[nH]c(=O)sc12)C1CCCCCC1 [Example 23, N-Cycloheptyl-N-(2-{[2-(4-hydroxy-2-oxo-2,3-dihydro-1,3-benzothiazol-7-yl)ethyl]amino}ethyl)-N^3-(2-phenylethyl)-β-alaninamide bis-trifluoroacetic acid salt] | 3980 |  |  | 7.2
12 | O=C(CCNCCc1cccs1)N(CCNCCc1ccc(O)c2[nH]c(=O)sc12)C1CCCCCC1 [Example 52, N^1-Cycloheptyl-N^1-(2-{[2-(4-hydroxy-2-oxo-2,3-dihydro-1,3-benzothiazol-7-yl)ethyl]amino}ethyl)-N^3-[2-(2-thienyl)ethyl]-β-alaninamide bis-trifluoroacetic acid salt] | 1580 | 100 |  | 
13 | O=C(CCNCCc1ccc(F)cc1F)N(CCNCCc1ccc(O)c2[nH]c(=O)sc12)C1CCCCCC1 [Example 55, N^1-Cycloheptyl-N^3-[2-(2,4-difluorophenyl)ethyl]-N^1-(2-{[2-(4-hydroxy-2-oxo-2,3-dihydro-1,3-benzothiazol-7-yl)ethyl]amino}ethyl)-β-alaninamide bis-trifluoroacetic acid salt] | 2510 | 50.1 |  | 
14 | C[C@H](CNCCC(=O)N(CCNCCc1ccc(O)c2[nH]c(=O)sc12)C1CCCC1)c1ccccc1 [Example 31, N-cyclopentyl-N-(2-{[2-(4-hydroxy-2-oxo-2,3-dihydro-1,3-benzothiazol-7-yl)ethyl]amino}ethyl)-N^3-[(2S)-2-phenylpropyl]-β-alaninamide bis-trifluoroacetic acid salt] | 6310 | 200 |  | 

Second part, led by results:

Row | IC50 [1] [nM] | IC50 [2] [nM] | SMILES | β1 bind p IC50 [1] | α1 bind pIC50 [2]
15 | 2510 | 316 | O=C(CCNCCc1ccc(F)cc1)N(CCNCCc1ccc(O)c2[nH]c(=O)sc12)CC12CC3CC(CC(C3)C1)C2 [Example 61, N^1-(1-Adamantylmethyl)-N^3-[2-(4-fluorophenyl)ethyl]-N^1-(2-{[2-(4-hydroxy-2-oxo-2,3-dihydro-1,3-benzothiazol-7-yl)ethyl]amino}ethyl)-β-alaninamide bis-trifluoroacetic acid salt] |  | 
16 | 3980 | 158 | O=C(CCNCCc1ccc2c(c1)OCO2)N(CCNCCc1ccc(O)c2[nH]c(=O)sc12)C1CCCCC1 [Example 76, N^3-[2-(1,3-Benzodioxol-5-yl)ethyl]-N^1-cyclohexyl-N^1-(2-{[2-(4-hydroxy-2-oxo-2,3-dihydro-1,3-benzothiazol-7-yl)ethyl]amino}ethyl)-β-alaninamide bis-trifluoroacetic acid salt] |  | 
17 | 794 | 100 | CC(CN(C(=O)CCNCCc1cccc(F)c1)C1CCCCCC1)NCCc1ccc(O)c2[nH]c(=O)sc12 (stereo not drawn) [Example 104, N-Cycloheptyl-N^3-[2-(3-fluorophenyl)ethyl]-N-(2-{[2-(4-hydroxy-2-oxo-2,3-dihydro-1,3-benzothiazol-7-yl)ethyl]amino}propyl)-β-alaninamide bis-trifluoroacetic acid salt] |  | 
18 | 1580 | 251 | CC(C)(CO)CN(CCNCCc1ccc(O)c2[nH]c(=O)sc12)C(=O)CCNCCc1cccc(Cl)c1 [Example 66, N^3-[2-(3-Chlorophenyl)ethyl]-N^1-(3-hydroxy-2,2-dimethylpropyl)-N^1-(2-{[2-(4-hydroxy-2-oxo-2,3-dihydro-1,3-benzothiazol-7-yl)ethyl]amino}ethyl)-β-alaninamide bis-trifluoroacetic acid salt] |  | 
19 | 5010 | 251 | O=C(CCNCCc1cc(F)cc(F)c1)N(CCNCCc1ccc(O)c2[nH]c(=O)sc12)C1CCCCCC1 [Example 58, N^1-Cycloheptyl-N^3-[2-(3,5-difluorophenyl)ethyl]-N^1-(2-{[2-(4-hydroxy-2-oxo-2,3-dihydro-1,3-benzothiazol-7-yl)ethyl]amino}ethyl)-β-alaninamide bis-trifluoroacetic acid salt] |  | 
20 | 6310 | 158 | NS(=O)(=O)c1ccc(CCNCCC(=O)N(CCNCCc2ccc(O)c3[nH]c(=O)sc23)C2CCCCC2)cc1 [Example 69, N^3-{2-[4-(Aminosulfonyl)phenyl]ethyl}-N^1-cyclohexyl-N^1-(2-{[2-(4-hydroxy-2-oxo-2,3-dihydro-1,3-benzothiazol-7-yl)ethyl]amino}ethyl)-β-alaninamide bis-trifluoroacetic acid salt] |  | 
